Test results from the NIST ThermoML archive (doi:10.1021/je050484k).

Legend:
[1] = xn = mol fraction of the nth substance listed; settings: for surface tension liquid-gas: Pendant drop shape; for mass density: 101 kPa, Liquid
[2] = for surface tension liquid-gas: Pendant drop shape; for mass density: 101 kPa, Liquid

COCCOC [1,2-dimethoxyethane] + Cc1cc(C)cc(C)c1
[1]
Settings	mass density [kg/m3]	surface tension liquid-gas [mN/m]
298.15 K, x1 = 0.0487	860.76	–
298.15 K, x1 = 0.0997	860.5	27.6
298.15 K, x1 = 0.1518	860.24	–
298.15 K, x1 = 0.201	860.03	27.07
298.15 K, x1 = 0.2499	859.85	–
298.15 K, x1 = 0.2978	859.68	26.59
298.15 K, x1 = 0.3484	859.56	–
298.15 K, x1 = 0.3973	859.41	26.14
298.15 K, x1 = 0.451	859.35	–
298.15 K, x1 = 0.4991	859.29	25.71
298.15 K, x1 = 0.5498	859.31	–
298.15 K, x1 = 0.5977	859.3	25.35
298.15 K, x1 = 0.6494	859.42	–
298.15 K, x1 = 0.7011	859.52	25
298.15 K, x1 = 0.7499	859.69	–
298.15 K, x1 = 0.7999	859.91	24.67
298.15 K, x1 = 0.8474	860.25	–
298.15 K, x1 = 0.9008	860.54	24.3
298.15 K, x1 = 0.9484	860.95	–
298.15 K, x1 = 1	861.38	23.93
313.15 K, x1 = 0.0504	848.29	–
313.15 K, x1 = 0.0988	847.89	26.2
313.15 K, x1 = 0.1505	847.48	–
313.15 K, x1 = 0.1996	847.11	25.69
313.15 K, x1 = 0.2474	846.78	–
313.15 K, x1 = 0.3	846.42	25.17
313.15 K, x1 = 0.3495	846.14	–
313.15 K, x1 = 0.4	845.85	24.69
313.15 K, x1 = 0.4498	845.61	–
313.15 K, x1 = 0.5002	845.34	24.24
313.15 K, x1 = 0.5502	845.18	–
313.15 K, x1 = 0.5998	845	23.84
313.15 K, x1 = 0.6509	844.85	–
313.15 K, x1 = 0.6989	844.79	23.49
313.15 K, x1 = 0.7494	844.74	–
313.15 K, x1 = 0.8	844.75	23.17
313.15 K, x1 = 0.8505	844.8	–
313.15 K, x1 = 0.8991	844.92	22.84
313.15 K, x1 = 0.9502	845.1	–
313.15 K, x1 = 1	845.28	22.51

COCCOC [1,2-dimethoxyethane] + Cc1ccc(C)c(C)c1
[1], x1 = 1
Settings	mass density [kg/m3]	surface tension liquid-gas [mN/m]
298.15 K	861.38	23.93
313.15 K	845.31	22.51

Cc1cc(C)cc(C)c1 [1,3,5-trimethylbenzene]
[2]
Settings	mass density [kg/m3]	surface tension liquid-gas [mN/m]
298.15 K	861.05	28.09
313.15 K	848.74	26.82
